Source: ChEMBL document CHEMBL5725462, “Substituted triazolopyridines” (2017)

Biological target: T1, Dual specificity protein kinase TTK (Homo sapiens, UniProt P33981)
T1 sequence (P33981 whole entry): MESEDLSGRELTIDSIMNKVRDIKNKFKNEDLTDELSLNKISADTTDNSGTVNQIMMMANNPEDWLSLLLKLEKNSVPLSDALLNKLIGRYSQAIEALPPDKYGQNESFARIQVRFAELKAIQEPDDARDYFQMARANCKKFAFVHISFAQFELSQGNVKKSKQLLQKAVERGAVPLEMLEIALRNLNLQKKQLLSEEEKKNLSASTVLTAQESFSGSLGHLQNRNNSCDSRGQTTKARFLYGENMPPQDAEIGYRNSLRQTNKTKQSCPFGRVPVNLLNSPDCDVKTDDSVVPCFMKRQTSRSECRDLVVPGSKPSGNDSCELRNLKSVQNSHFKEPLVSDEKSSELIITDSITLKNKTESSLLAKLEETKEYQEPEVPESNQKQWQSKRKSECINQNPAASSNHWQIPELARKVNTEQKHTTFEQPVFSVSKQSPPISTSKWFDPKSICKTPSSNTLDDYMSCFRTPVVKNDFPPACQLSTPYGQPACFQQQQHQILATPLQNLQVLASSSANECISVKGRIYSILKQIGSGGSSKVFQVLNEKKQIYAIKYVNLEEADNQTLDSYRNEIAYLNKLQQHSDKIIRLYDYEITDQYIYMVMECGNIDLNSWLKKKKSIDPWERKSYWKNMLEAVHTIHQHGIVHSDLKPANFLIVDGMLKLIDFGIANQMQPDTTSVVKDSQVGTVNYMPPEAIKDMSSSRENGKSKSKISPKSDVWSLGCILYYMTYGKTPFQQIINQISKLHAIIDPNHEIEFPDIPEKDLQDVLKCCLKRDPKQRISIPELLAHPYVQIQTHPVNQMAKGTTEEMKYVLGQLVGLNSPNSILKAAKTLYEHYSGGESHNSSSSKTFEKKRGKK
Test: The concentration of Mps-1 in the assay was adjusted to the activity of the enzyme lot and was chosen appropriate to have the assay in the linear range, typical enzyme concentrations were in the range of about 1 nM (final conc. in the 5 μl assay volume).

IC50: < 1 nM
Structure (SMILES): COc1cc(C(=O)N2CC3(COC3)C2)ccc1Nc1nc2ccc(-c3ccc(C(=O)NCc4ccc(F)cc4)nc3)cn2n1
